The target of assay [1] is T1, CDK12 protein level in CAL-120 breast cancer cells (Homo sapiens, UniProt Q9NYV4).
T1 construct: endogenous in cells; host or cells: CAL-120 human breast cancer cells (DSMZ ACC 459)
Nature of the assay: CDK12 protein level: Protein Simple (CDK12, CAL-120). In kind it is cell-based. The following applies: CAL-120 cells, 18 h with compound, CDK12/HSP90 peak area ratio vs vehicle, median, read-out: CDK12 protein level in CAL-120 breast ca cells, DC50-[mol/l] (median). The method in brief:
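Cells grown 24 h, then treated with compounds for 18 h at 37° C against DMSO controls. Lysates (0.4 microgramms protein) run on Protein Simple 66-440 kDa size assay with CDK12 and HSP90 loading-control antibodies. CDK12/HSP90 peak-area ratios versus vehicle gave DC50 (50% reduction) by 4-parameter fit.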

The test system of assay [2] is BRCA1 mRNA expression in CAL-120 cells. Kind of assay: qRT-PCR assay: BRCA1 mRNA expression in CAL-120. The settings on record: Homo sapiens; Inhibition of BRCA1 mRNA expression in CAL-120 cells; median; read-out: RTqPCR-CAL-120, IC50, BRCA1 (median). The format is cell-based. The method in brief: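 First, cells are plated at 200,000 per well and allowed 24 h. Second, test substances are applied continuously for a further 24 h. Finally, RNA is isolated, 600 ng is converted to cDNA, and qPCR quantifies the transcript relative to GAPDH.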
Background: In qPCR the cycle at which signal appears reflects the starting amount.

SMILES strings stand for the structures.

Experimental findings from US20230117034A1, “PYRAZOLOTRIAZINES” (Bayer Aktiengesellschaft, priority 2019, published 2023) are described below.

By IC50 is commonly meant the point on the concentration scale where inhibition reaches its midpoint.

T1 sequence (Q9NYV4 whole entry): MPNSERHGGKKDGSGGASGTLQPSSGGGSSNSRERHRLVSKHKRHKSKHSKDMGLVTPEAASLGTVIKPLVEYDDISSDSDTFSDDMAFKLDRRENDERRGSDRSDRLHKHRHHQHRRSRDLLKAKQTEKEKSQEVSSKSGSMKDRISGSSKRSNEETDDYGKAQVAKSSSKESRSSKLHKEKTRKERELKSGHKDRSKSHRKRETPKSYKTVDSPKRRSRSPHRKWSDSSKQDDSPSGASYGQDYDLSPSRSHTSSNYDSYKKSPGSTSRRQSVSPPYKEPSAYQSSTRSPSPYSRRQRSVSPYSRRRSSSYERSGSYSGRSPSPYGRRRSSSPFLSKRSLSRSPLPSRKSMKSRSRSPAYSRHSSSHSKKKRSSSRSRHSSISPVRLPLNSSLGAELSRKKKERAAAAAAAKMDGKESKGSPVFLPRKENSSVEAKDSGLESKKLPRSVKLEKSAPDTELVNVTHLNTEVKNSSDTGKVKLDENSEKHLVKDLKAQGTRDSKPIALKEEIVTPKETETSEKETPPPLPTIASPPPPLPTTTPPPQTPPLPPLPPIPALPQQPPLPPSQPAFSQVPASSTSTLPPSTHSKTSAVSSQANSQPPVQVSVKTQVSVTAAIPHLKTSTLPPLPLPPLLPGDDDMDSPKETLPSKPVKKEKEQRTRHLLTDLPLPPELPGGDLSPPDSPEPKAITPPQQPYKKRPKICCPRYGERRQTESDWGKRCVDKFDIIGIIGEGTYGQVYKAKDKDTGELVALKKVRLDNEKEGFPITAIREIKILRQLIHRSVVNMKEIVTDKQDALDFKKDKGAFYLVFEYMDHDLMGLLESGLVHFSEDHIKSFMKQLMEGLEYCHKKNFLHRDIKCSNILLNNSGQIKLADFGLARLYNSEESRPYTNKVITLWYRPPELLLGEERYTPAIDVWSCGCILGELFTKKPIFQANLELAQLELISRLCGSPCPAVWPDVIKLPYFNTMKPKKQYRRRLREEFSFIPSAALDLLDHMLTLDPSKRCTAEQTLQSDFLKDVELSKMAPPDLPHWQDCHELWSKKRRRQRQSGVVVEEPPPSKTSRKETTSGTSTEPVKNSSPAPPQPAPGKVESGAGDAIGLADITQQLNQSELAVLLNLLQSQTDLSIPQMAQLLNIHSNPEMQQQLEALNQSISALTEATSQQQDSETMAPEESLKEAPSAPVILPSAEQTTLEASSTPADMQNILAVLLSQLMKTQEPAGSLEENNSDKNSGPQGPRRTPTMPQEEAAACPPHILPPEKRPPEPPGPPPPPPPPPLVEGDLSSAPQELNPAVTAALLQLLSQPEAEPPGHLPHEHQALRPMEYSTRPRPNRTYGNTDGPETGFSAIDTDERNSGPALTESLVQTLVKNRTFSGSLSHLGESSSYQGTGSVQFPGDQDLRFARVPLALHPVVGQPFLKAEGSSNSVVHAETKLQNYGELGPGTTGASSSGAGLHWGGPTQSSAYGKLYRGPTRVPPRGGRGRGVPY
T1 sequence (O75909 whole entry partner): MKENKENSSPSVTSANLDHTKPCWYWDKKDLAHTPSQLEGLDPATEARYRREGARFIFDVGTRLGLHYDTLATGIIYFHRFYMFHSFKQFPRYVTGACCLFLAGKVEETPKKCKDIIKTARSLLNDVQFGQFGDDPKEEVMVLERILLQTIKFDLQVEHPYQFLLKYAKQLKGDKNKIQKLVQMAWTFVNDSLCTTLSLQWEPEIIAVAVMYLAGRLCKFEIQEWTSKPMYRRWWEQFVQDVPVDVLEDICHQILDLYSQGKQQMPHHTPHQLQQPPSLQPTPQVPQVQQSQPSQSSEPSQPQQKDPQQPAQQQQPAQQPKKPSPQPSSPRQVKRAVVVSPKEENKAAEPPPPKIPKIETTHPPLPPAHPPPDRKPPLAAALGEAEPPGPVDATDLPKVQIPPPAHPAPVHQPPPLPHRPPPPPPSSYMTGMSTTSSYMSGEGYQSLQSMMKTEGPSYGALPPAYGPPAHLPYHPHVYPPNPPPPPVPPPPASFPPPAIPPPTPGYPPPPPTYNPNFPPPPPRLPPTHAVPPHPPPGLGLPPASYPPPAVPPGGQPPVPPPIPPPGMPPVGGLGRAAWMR

`Cc1[nH]c(CNc2nc(N3CCOCC3)nc3c(Br)cnn23)nc1-c1ccccc1` [Example 27, 8-bromo-N-[(5-methyl-4-phenyl-1H-imidazol-2-yl)methyl]-2-(morpholin-4-yl)pyrazolo[1,5-a][1,3,5]triazin-4-amine]: the DC50 in assay [1] was 44.6 nM. As to `Fc1ccc(-c2nnc(CNc3nc(N4CCOCC4)nc4c(Br)cnn34)[nH]2)cc1` [Example 29, 8-bromo-N-{[5-(4-fluorophenyl)-4H-1,2,4-triazol-3-yl]methyl}-2-(morpholin-4-yl)pyrazolo[1,5-a][1,3,5]triazin-4-amine], the IC50 in assay [2] was 84.1 nM. In assay [1], the DC50 is 9.15 nM. For `CC(C)c1cnn2c(NCc3ncc(-c4ccccc4)[nH]3)nc(N3CCN(C)CC3)nc12` [Example 31, 2-(4-methylpiperazin-1-yl)-N-[(5-phenyl-1H-imidazol-2-yl)methyl]-8-(propan-2-yl)pyrazolo[1,5-a][1,3,5]triazin-4-amine], in that order: 54.9 nM and 10.9 nM.

As for `Cc1ccnc2[nH]c(CNc3nc(N4CCOCC4)nc4c(C(C)C)cnn34)nc12` [Example 28, N-[(7-methyl-3H-imidazo[4,5-b]pyridin-2-yl)methyl]-2-(morpholin-4-yl)-8-(propan-2-yl)pyrazolo[1,5-a][1,3,5]triazin-4-amine], the IC50 in assay [2] was 30.6 nM. In assay [1], the DC50 worked out at 1.44 nM.
